The results in this text go back to patent US9260408B2, “Dihydroquinoline-2-one derivatives” (Hoffmann-La Roche Inc., priority 2011, dated 2016).

The target of one assay is T1, human CYP11B2 (Homo sapiens, UniProt P19099).
T1 construct: expressed in transfected cells
T1 sequence (P19099 25-503): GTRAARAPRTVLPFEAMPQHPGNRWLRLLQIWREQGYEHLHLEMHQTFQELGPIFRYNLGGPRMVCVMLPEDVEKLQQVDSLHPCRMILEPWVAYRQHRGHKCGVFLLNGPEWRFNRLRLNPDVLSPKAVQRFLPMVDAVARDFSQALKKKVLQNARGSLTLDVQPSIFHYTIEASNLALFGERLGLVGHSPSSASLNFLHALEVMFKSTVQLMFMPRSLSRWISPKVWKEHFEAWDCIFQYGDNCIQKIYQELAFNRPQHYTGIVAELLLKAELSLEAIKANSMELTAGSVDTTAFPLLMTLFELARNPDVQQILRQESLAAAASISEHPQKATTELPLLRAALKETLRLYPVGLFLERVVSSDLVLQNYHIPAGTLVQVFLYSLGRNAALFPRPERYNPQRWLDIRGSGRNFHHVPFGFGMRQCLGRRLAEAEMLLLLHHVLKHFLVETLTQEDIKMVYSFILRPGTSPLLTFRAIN
Nature of the assay: G-402 cellular enzyme assay, human CYP11B2 (aldosterone release, HTRF). In kind it is cell-based. The conditions noted are these: G-402 cells expressing human CYP11B2; 1 μM Deoxycorticosterone. In short, it runs like this:
(§1)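 G-402 cells stably expressing human CYP11B2 or CYP11B1, in DMEM/F12 with 2.5% charcoal-treated FCS, were incubated 16 h with compound plus 1 μM deoxycorticosterone (CYP11B2) or 1 μM deoxycortisol (CYP11B1). Aldosterone or cortisol in the supernatant measured by HTRF; EC50 from a 4-parameter MMF fit.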

In another assay the target is T2, human CYP11B1 (Homo sapiens, UniProt P15538).
T2 construct: expressed in transfected cells
T2 sequence (P15538 25-503): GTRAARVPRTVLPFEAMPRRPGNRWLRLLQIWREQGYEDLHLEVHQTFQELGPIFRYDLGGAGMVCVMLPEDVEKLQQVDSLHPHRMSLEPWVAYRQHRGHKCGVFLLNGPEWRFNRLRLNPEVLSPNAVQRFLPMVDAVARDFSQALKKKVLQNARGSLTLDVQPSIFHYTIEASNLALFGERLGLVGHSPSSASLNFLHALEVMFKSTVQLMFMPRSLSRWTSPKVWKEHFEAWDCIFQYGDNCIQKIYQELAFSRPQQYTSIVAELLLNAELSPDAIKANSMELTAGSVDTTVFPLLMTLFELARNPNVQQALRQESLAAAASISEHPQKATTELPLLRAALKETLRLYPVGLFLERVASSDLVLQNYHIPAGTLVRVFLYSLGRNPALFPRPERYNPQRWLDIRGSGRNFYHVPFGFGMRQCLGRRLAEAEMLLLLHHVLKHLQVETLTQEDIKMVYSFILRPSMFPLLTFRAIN
Nature of the assay: G-402 cellular enzyme assay, human CYP11B1 (cortisol release, HTRF). In kind it is cell-based. The following applies: G-402 cells expressing human CYP11B1; 1 μM Deoxycortisol. In short, it runs like this:
as §1

Turning to `CCC(=O)N1CC[C@H](Oc2cncc(-c3ccc4c(c3)CCC(=O)N4C)c2)C1` [Example 90], the EC50 amounted to 11 nM at human CYP11B2 and 1500 nM on human CYP11B1.
`CN1C(=O)CCc2cc(-c3cncc(OC[C@@H]4CCN4C(=O)C4CC4)c3)ccc21` [Example 91]: the concentration giving a half-maximal response (EC50) on human CYP11B2 was found to be 43 nM; on human CYP11B1, 3070 nM.
Regarding `Cc1nocc1C(=O)NCc1cncc(-c2ccc3c(c2)CCC(=O)N3C)c1` [Example 92], the concentration giving a half-maximal response (EC50) at human CYP11B2 was 16 nM; on human CYP11B1 it was 632 nM.
On the same counts, the results for `Cc1cc(F)cc(C)c1C(=O)NCc1cncc(-c2ccc3c(c2)CCC(=O)N3C)c1` [Example 93] are 23 nM and 613 nM.
On to `CCC(=O)N1CC[C@H]1COc1cncc(-c2ccc3c(c2)CCC(=O)N3C)c1` [Example 94], for which the concentration giving a half-maximal response (EC50) on human CYP11B2 was determined as 23 nM; at human CYP11B1, 1340 nM.
Consider `CN1C(=O)CCc2cc(-c3cncc(CNC(=O)c4cc(Cl)nnc4Cl)c3)ccc21` [Example 95], for which the concentration giving a half-maximal response (EC50) at human CYP11B2 was 17 nM; on human CYP11B1, 1780 nM.
As for `CN1C(=O)CCc2cc(-c3cncc(CNC(=O)c4cn(CC(F)(F)F)nc4C4CC4)c3)ccc21` [Example 96], the EC50 was 22 nM at human CYP11B2 and 1680 nM at human CYP11B1.
Regarding `CN1C(=O)CCc2cc(-c3cncc(CNC(=O)c4ccccn4)c3)ccc21` [Example 97], the EC50 on human CYP11B2 worked out at 6 nM; at human CYP11B1, 111 nM.
With `Cc1nn(C)cc1C(=O)NCc1cncc(-c2ccc3c(c2)CCC(=O)N3C)c1` [Example 98], the concentration giving a half-maximal response (EC50) at human CYP11B2 turned out to be 11 nM; on human CYP11B1, 360 nM.
Consider `CN1C(=O)CCc2cc(-c3cncc(CNC(=O)c4ncccn4)c3)ccc21` [Example 99], for which the half-maximal effective concentration (EC50) at human CYP11B2 was 35 nM; on human CYP11B1 it was 1120 nM.
Turning to `COc1ccc(C(=O)NCc2cncc(-c3ccc4c(c3)CCC(=O)N4C)c2)nn1` [Example 100], the results for the EC50 at human CYP11B2 and on human CYP11B1 were 7 nM and 140 nM, respectively.
Turning to `Cc1oncc1C(=O)NCc1cncc(-c2ccc3c(c2)CCC(=O)N3C)c1` [Example 101], the EC50 was 2 nM at human CYP11B2 and 179 nM at human CYP11B1.
Turning to `Cc1noc(C)c1C(=O)NCCOc1cncc(-c2ccc3c(c2)CCC(=O)N3C)c1` [Example 102], the EC50 at human CYP11B2 turned out to be 14 nM; at human CYP11B1, 1440 nM.
Consider `CN1C(=O)CCc2cc(-c3cncc(OCCNC(=O)c4cnn(C)c4)c3)ccc21` [Example 103], for which the EC50 on human CYP11B2 is 15 nM; at human CYP11B1, 2930 nM.
Regarding `CN1C(=O)CCc2cc(-c3cncc(CNC(=O)c4ccc(Cl)nn4)c3)ccc21` [Example 104], the results for the EC50 on human CYP11B2 and at human CYP11B1 were 10 nM and 94 nM, respectively.
Regarding `Cc1cc(C(=O)NCc2cncc(-c3ccc4c(c3)CCC(=O)N4C)c2)c(Cl)nn1` [Example 105], the half-maximal effective concentration (EC50) worked out at 86 nM at human CYP11B2 and 2580 nM on human CYP11B1.
For the molecule `CCC(=O)N1CCC[C@H]1COc1cncc(-c2ccc3c(c2)CCC(=O)N3C)c1` [Example 106], the EC50 on human CYP11B2 amounted to 20 nM; at human CYP11B1, 2680 nM.
For `CN1C(=O)CCc2cc(-c3cncc(CNC(=O)c4cnoc4C4CC4)c3)ccc21` [Example 107], the concentration for a half-maximal effect (EC50) at human CYP11B2 amounted to 2 nM; on human CYP11B1, 44 nM.
Regarding `Cc1nc(C(=O)NCc2cncc(-c3ccc4c(c3)CCC(=O)N4C)c2)c(C(F)(F)F)o1` [Example 108], the 50% effective concentration (EC50) on human CYP11B2 was 32 nM; at human CYP11B1, 1110 nM.
On the same counts, the results for `Cc1nc(C(=O)NCc2cncc(-c3ccc4c(c3)CCC(=O)N4C)c2)co1` [Example 109] are 78 nM and 712 nM.
Regarding `CN1C(=O)CCc2cc(-c3cncc(CNC(=O)c4ncoc4C4CC4)c3)ccc21` [Example 110], the EC50 on human CYP11B2 stood at 6 nM; at human CYP11B1 it was 187 nM.
Take `Cc1nc(C(=O)NCc2cncc(-c3ccc4c(c3)CCC(=O)N4C)c2)c(C)o1` [Example 111]: the EC50 on human CYP11B2 turned out to be 4 nM; at human CYP11B1 it was 81 nM.
Turning to `Cc1ocnc1C(=O)NCc1cncc(-c2ccc3c(c2)CCC(=O)N3C)c1` [Example 112], the values for the EC50 on human CYP11B2 and on human CYP11B1 were 6 nM and 151 nM, respectively.
Consider `Cc1noc(C)c1C(=O)NC1(c2cncc(-c3ccc4c(c3)CCC(=O)N4C)c2)CC1` [Example 113], for which the EC50 on human CYP11B2 came to 75 nM; on human CYP11B1, 1570 nM.
With `CN1C(=O)CCc2cc(-c3cncc(CNC(=O)c4cccc(Cl)n4)c3)ccc21` [Example 114], the concentration for a half-maximal effect (EC50) on human CYP11B2 was determined as 8 nM; on human CYP11B1 it was 142 nM.
`Cc1cccnc1C(=O)NCc1cncc(-c2ccc3c(c2)CCC(=O)N3C)c1` [Example 115, 3-Methyl-pyridine-2-carboxylic acid [5-(1-methyl-2-oxo-1,2,3,4-tetrahydro-quinolin-6-yl)-pyridin-3-ylmethyl]-amide]: the concentration for a half-maximal effect (EC50) on human CYP11B2 was found to be 1 nM; on human CYP11B1, 14 nM.
As to `CN1C(=O)CCc2cc(-c3cncc(CNC(=O)c4nc(Cl)ccc4Cl)c3)ccc21` [Example 116], the 50% effective concentration (EC50) is 3 nM at human CYP11B2 and 81 nM at human CYP11B1.
In the case of `Cc1cccc(C(=O)NCc2cncc(-c3ccc4c(c3)CCC(=O)N4C)c2)n1` [Example 117], the concentration for a half-maximal effect (EC50) on human CYP11B2 is 8 nM; at human CYP11B1, 121 nM.
On the same counts, the results for `CN1C(=O)CCc2cc(-c3cncc(CNC(=O)c4ncccc4Cl)c3)ccc21` [Example 118, 3-Chloro-pyridine-2-carboxylic acid [5-(1-methyl-2-oxo-1,2,3,4-tetrahydro-quinolin-6-yl)-pyridin-3-ylmethyl]-amide] are 4 nM and 682 nM.
For the molecule `CN1C(=O)CCc2cc(-c3cncc(CNC(=O)c4ncccc4F)c3)ccc21` [Example 119], the concentration giving a half-maximal response (EC50) at human CYP11B2 was determined as 6 nM; at human CYP11B1 it was 75 nM.
In the case of `CCC(=O)N1CC[C@@H](Oc2cncc(-c3ccc4c(c3)CCC(=O)N4C)c2)C1` [Example 121], the results for the EC50 at human CYP11B2 and on human CYP11B1 were 19 nM and 1370 nM, respectively.
Turning to `CCC(=O)N1CC[C@H](Oc2cncc(-c3cc4c(cc3F)N(C)C(=O)CC4)c2)C1` [Example 122], the half-maximal effective concentration (EC50) on human CYP11B2 is 9 nM; at human CYP11B1, 535 nM.
On the same counts, the results for `CN1C(=O)CCc2cc(-c3cncc(CNC(=O)c4ncc(C(F)(F)F)cn4)c3)ccc21` [Example 123] are 62 nM and 2920 nM.
For `Cc1cnc(C(=O)NCc2cncc(-c3ccc4c(c3)CCC(=O)N4C)c2)cn1` [Example 124], the figures for the EC50 on human CYP11B2 and on human CYP11B1 were 5 nM and 138 nM, respectively.
On to `CN1C(=O)CCc2cc(-c3cncc(CNC(=O)c4cnc(Cl)cn4)c3)ccc21` [Example 125], for which the values for the EC50 on human CYP11B2 and at human CYP11B1 were 3 nM and 154 nM, respectively.
Turning to `CN1C(=O)CCc2cc(-c3cncc(CNC(=O)c4cnc(C(F)(F)F)cn4)c3)ccc21` [Example 126], the EC50 was determined as 7 nM at human CYP11B2 and 642 nM at human CYP11B1.
For `Cc1noc(C)c1C(=O)NCc1cncc(-c2cc3c(cc2F)N(C)C(=O)CC3)c1` [Example 127] the same measures were 12 nM and 400 nM.
Turning to `CCC(=O)N1CCC[C@@H]1COc1cncc(-c2ccc3c(c2)CCC(=O)N3C)c1` [Example 128], the EC50 at human CYP11B2 was 119 nM; on human CYP11B1 it was 2290 nM.
On to `CCC(=O)N1CC(Oc2cncc(-c3ccc4c(c3)CCC(=O)N4C)c2)C1` [Example 129], for which the concentration for a half-maximal effect (EC50) on human CYP11B2 was determined as 30 nM; at human CYP11B1 it was 613 nM.
With `CCC(=O)NC1(c2cncc(-c3ccc4c(c3)CCC(=O)N4C)c2)COC1` [Example 130], the results for the concentration for a half-maximal effect (EC50) on human CYP11B2 and at human CYP11B1 were 162 nM and 10500 nM, respectively.
For `CN1C(=O)CCc2cc(-c3cncc(CNC(=O)c4ncccc4Cl)c3)c(F)cc21` [Example 131, 3-Chloro-pyridine-2-carboxylic acid [5-(7-fluoro-1-methyl-2-oxo-1,2,3,4-tetrahydro-quinolin-6-yl)-pyridin-3-ylmethyl]-amide] the same measures were 3 nM and 440 nM.
On the same counts, the results for `CN1C(=O)CCc2cc(-c3cncc(CNC(=O)c4cc(Cl)nnc4Cl)c3)c(F)cc21` [Example 132] are 29 nM and 4800 nM.
Turning to `CCC(=O)N1CC[C@@H](Oc2cncc(-c3cc4c(cc3F)N(C)C(=O)CC4)c2)C1` [Example 133], the EC50 at human CYP11B2 came out at 10 nM; on human CYP11B1 it was 837 nM.
In the case of `COc1nc(Cl)cnc1C(=O)NCc1cncc(-c2ccc3c(c2)CCC(=O)N3C)c1` [Example 134], the EC50 is 3 nM at human CYP11B2 and 94 nM on human CYP11B1.
As for `Cc1noc(C(F)(F)F)c1C(=O)NCc1cncc(-c2ccc3c(c2)CCC(=O)N3C)c1` [Example 136], the figures for the half-maximal effective concentration (EC50) at human CYP11B2 and at human CYP11B1 were 47 nM and 2430 nM, respectively.
